Data: paper PMC7815716, “Mechanistic basis of breast cancer resistance protein inhibition by new indeno[1,2-b]indoles” (Scientific Reports, 2021)
“Also recorded” adds a separate entry of the source.

Columns and labels:
[1] = tested on: HEK293-ABCG2 cells; test: Sensitization of ABCG2-transfected cells to SN-38, MTT assay; type: cell-based, human; settings: for Chemosensitization to SN-38: HEK293-ABCG2, 72 h co-treatment, IC50 value or 5 µM; for FR, fold reversal: vs HEK293 WT
Method: Cell viability was evaluated with a 3-(4,5-dimethylthiazol-2-yl)-2,5-diphenyltetrazolium bromide (MTT) colorimetric assay. HEK293 WT and HEK293-ABCG2 cells were seeded into 96-well culture plates at a 1.5 × 10^4 cells/well density. After overnight incubation, the cells were treated with various concentrations of compounds (0–100 µM) for 72 h at 37 °C under 5% CO2. […] Sensitization experiments were also carried out on H460 and H460MX20 cells. For these experiments, H460 and H460MX20 cells were seeded into 96-well culture plates at 1.0 × 10^4 cells/well density. […] After the treatment, the culture medium was removed and 100 μL of a 0.5 mg.mL^−1 MTT solution was added. Cells were then incubated for 4 h at 37 °C under 5% CO2. The formazan crystals were dissolved with a solution of DMSO/ethanol (1:1) and the absorbance was measured at 570 nm using a Multiscan FC microplate reader (Thermo Scientific). The results were expressed as percentage of viable cells versus control cells (0.1% DMSO, v/v) taken as 100%.

[2] = target: T1, ABCG2 (Homo sapiens, UniProt Q9UNQ0); test: Thermostabilization assay (ATPase activity after heating); type: biochemical; settings: 10 µM, curves with or without ATP
T1 sequence (Q9UNQ0 1-655): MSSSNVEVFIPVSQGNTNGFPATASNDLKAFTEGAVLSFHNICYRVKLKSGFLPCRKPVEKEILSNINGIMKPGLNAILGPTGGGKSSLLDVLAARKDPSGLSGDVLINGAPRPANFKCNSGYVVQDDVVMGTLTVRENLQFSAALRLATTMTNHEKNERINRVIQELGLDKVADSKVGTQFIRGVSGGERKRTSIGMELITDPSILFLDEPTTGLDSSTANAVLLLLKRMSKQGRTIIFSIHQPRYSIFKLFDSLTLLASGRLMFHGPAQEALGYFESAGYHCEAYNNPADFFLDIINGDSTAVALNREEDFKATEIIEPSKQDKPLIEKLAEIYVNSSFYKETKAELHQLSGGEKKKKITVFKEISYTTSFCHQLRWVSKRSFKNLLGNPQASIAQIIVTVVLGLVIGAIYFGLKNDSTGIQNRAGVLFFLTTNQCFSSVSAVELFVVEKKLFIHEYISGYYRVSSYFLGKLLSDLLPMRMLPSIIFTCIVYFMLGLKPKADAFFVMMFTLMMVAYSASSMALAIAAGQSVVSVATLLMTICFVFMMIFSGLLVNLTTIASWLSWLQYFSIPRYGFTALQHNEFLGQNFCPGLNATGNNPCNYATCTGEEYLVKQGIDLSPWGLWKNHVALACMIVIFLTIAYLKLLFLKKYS
Method: The thermal stability assay was performed according to the published. Total membrane prepared from High Five insect cells overexpressing the ABCG2 at 3 µg protein/tube concentration were incubated with assay buffer composed by 50 mM Tris–HCl, pH 6.8, 150 mM N-methyl-D-glucamine (NMDG)-Cl, 5 mM sodium azide, 1 mM ouabain and 2 mM DTT in the presence or absence of 0.3 mM orthovanadate at final volume of 50 µL. To evaluate the effect of those inhibitors over thermal stability, each sample was prepared with 12.5 mM MgCl2 or 6.25 mM ATP and incubated with a temperature range from 37 to 71 °C for 10 min using a thermocycler C1000 Touch (Bio-Rad, Hercules, CA). After incubation, 10 µL of 25 mM ATP or 50 mM MgCl2 (5 and 10 mM final concentration, respectively) was added and incubated at 37 °C/20 min to allow ATP hydrolysis. The reaction was stopped with the addition of 50 µL of Pi solution containing 1% ammonium molibdate, 2.5 N H2SO4 and 0.014% potassium-antimony tartrate. To evaluate the absorbance, the samples were transferred to a 96 well plate (50 µL/well), added 150 µL of 0.33% sodium ascorbate solution. The absorbance was measured after 15 min incubation at room temperature using the microplate reader Spectramax iD3 (Molecular Devices, San Jose, CA). The sensitive activity to vanadate (Vi) was calculated as the difference between the activity in the absence of Vi minus the activity in the presence of Vi to each temperature.

[3] = target: T2, ABCC1 (MRP1) (Homo sapiens, UniProt P33527); test: ABCC1 (MRP1) calcein-AM transport inhibition in BHK21-ABCC1 cells; type: cell-based; settings: 1 and 10 µM; for Inhibition of MRP1-mediated transport: calcein-AM
T2 construct: expressed in transfected cells; host or cells: BHK21
Method: ABCG2 inhibition assays were carried out on HEK293 WT and HEK293-ABCG2 cells. Cells were seeded at the density of 1 × 10^5 cells/well in 24 well culture plates and incubated for 48 h at 37 °C under 5% CO2. Cells were treated with compounds and 10 μM of mitoxantrone for 30 min at 37 °C and 5% CO2. After incubation the cells were washed with PBS, trypsinized and resuspended in ice cold PBS. The intracellular drug fluorescence was monitored with a FACS Calibur cytometer (Becton Dickinson) using the FL4 channel, with at least 10,000 events collected. The maximal fluorescence (taken as 100%) was determined with the difference between the mean fluorescence of HEK-ABCG2 cells incubated with 0.5 μM Ko143 (ABCG2 reference inhibitor) or by using the HEK293 WT cell line as a control and cells without inhibitor (mitoxantrone alone). The percent of inhibition was determined as previously described. For bimodulation assays the cells were concomitantly treated with 10 μM of one or two combined inhibitors under similar conditions as described previously. For washing assays, cells were treated with 10 μM concentrations of compounds for 30 min. Then, the medium with the inhibitor was removed and the cells were washed with PBS and incubated only with culture medium for different periods of time (0.5 and 3 h). After incubation, cells were exposed to 5 µM mitoxantrone for 30 min, and then analyzed by flow cytometry. The percentage of transport inhibition was calculated by the following equation: %Inhibition=C-S/I-S×100 where “C” corresponds to the intracellular fluorescence of cells in the presence of the tested compounds and substrate (mitoxantrone to ABCG2, Rhodamine 123 to ABCB1 and calcein to ABCC1), “S” corresponds to the intracellular fluorescence of cells in the presence of substrate alone, and “I” corresponds to the intracellular fluorescence of cells in the presence of the substrate and reference inhibitor (Ko143 to ABCG2, GF120918 to ABCB1 and verapamil to ABCC1).
ABCB1 (P-gp) and ABCC1 (MRP1) inhibition assays were carried out on NIH3T3 WT and NIH3T3-ABCB1 or BHK21 WT and BHK21-ABCC1 cell lines. Cells were treated with 5 μM rhodamine 123 or 0.2 μM calcein-AM as substrates, and with or without GF120918 (0.5 μM) or verapamil (30 μM) as reference inhibitors, for ABCB1 and ABCC1, respectively. Compounds were assayed at 1 and 10 µM. The same procedure and calculation to determine the percentage of inhibition were used for ABCG2 inhibition assays. The intracellular fluorescence was monitored with a FACS Calibur cytometer (Becton Dickinson) using the FL1 channel.

[4] = HEK293-ABCG2, SN-38 + inhibitor at 5 µM
[5] = HEK293-ABCG2, SN-38 + inhibitor at its IC50 value

T2 sequence (P33527 whole entry): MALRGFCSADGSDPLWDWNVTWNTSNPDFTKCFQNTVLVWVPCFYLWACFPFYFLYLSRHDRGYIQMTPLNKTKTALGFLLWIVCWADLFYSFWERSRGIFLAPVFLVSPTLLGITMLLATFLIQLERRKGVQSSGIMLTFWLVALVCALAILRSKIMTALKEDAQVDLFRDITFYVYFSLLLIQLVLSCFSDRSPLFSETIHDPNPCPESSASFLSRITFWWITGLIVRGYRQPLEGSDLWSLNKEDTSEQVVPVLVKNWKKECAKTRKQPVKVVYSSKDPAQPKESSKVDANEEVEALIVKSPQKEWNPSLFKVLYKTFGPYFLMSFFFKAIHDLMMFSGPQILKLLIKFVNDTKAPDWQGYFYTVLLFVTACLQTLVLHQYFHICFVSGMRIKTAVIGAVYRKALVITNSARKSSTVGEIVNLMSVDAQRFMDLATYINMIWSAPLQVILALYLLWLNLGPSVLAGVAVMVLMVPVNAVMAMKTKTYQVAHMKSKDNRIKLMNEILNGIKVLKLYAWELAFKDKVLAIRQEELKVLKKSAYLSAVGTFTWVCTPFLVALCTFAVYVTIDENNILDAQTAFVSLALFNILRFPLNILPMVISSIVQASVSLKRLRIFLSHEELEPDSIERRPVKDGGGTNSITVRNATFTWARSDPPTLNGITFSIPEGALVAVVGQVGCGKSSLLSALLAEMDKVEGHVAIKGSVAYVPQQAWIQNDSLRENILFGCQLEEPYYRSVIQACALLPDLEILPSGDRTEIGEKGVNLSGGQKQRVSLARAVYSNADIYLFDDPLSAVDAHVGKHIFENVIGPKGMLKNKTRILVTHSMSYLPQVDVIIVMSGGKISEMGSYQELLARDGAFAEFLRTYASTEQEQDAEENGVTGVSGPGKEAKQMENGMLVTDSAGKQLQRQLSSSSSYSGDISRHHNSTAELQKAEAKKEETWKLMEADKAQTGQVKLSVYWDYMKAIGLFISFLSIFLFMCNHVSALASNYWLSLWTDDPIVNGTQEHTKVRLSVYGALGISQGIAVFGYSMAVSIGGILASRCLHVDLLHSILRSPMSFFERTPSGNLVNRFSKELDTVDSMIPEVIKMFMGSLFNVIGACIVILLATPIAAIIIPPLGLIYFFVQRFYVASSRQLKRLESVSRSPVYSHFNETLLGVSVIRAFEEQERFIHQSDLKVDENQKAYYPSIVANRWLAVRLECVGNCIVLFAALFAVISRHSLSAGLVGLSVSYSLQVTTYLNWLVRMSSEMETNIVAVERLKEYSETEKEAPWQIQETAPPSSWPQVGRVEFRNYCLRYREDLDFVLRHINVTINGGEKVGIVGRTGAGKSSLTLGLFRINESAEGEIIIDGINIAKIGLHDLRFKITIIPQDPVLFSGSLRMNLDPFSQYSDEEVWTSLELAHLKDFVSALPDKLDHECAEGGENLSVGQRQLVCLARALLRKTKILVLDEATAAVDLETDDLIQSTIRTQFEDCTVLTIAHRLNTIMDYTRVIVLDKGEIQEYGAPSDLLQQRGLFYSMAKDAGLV

Row | Compound | melting point [°C] | Chemosensitization to SN-38 [1] | FR, fold reversal [1, 4] | FR, fold reversal [1, 5] | Thermostabilization effect [2] | Inhibition of MRP1-mediated transport [3] | Selectivity toward ABCG2 versus P-gp and MRP1 [3]
1 | COc1cc2c(cc1OC)-c1c(c3c(n1CCc1ccccc1)CC(C)CC3=O)C2=O (stereo not drawn) [5e, 2,3-Dimethoxy-7-methyl-5-phenethyl-5,6,7,8-tetrahydroindeno[1,2-b]indole-9,10-dione] | 235 | efficiently chemosensitize | 3.08 | 9.51 | moderate effect | partially inhibited | –
2 | COc1ccccc1CCn1c2c(c3c(O)cc(C)cc31)C(=O)c1ccccc1-2 [6a, 9-Hydroxy-7-methyl-5-(2-methoxyphenethyl)-5H-indeno[1,2-b]indol-10(5H)-one] | – | efficiently chemosensitize | 0.47 | 0.82 | moderate effect | – | specific ABCG2 inhibitor; also recorded: completely selective to ABCG2
3 | COc1ccc2[nH]cc(CCn3c4c(c5c(O)cccc53)C(=O)c3ccccc3-4)c2c1 [6c, 9-Hydroxy-5-(2-(5-methoxy-1H-indol-3-yl)ethyl)indeno[1,2-b]indol-10(5H)-one] | 95 | – | 0.37 | 1.13 | most pronounced effect | partially inhibited | –
4 | COc1cccc(CCn2c3c(c4c(O)cccc42)C(=O)c2ccc(O)cc2-3)c1 [6d, 3,9-Dihydroxy-5-(3-methoxyphenethyl)indeno[1,2-b]indol-10(5H)-one] | 198 | – | 0.64 | 12.48 | most pronounced effect | partially inhibited | –
